Assay [1] has as its target T1, Muscarinic (Cholinergic) M4 (Homo sapiens, UniProt P08173).
T1 construct: expressed in transfected cells; host or cells: CHO cells
As to the kind of experiment: CNS receptor binding assay, M4. The note with it: MAP4343 10 µM; [^3H] 4-DAMP; Human recombinant (CHO cells); read-out: % Inhibition of control specific binding. The procedure:
(§1) MAP4343 has been screened for in vitro affinity to 80 different CNS neurotransmitters receptors using various validated binding assays.
(§2) Table 4. In vitro affinity of MAP4343 (10 µM) for CNS neurotransmitter receptors associated with side effects and/or abuse liability. Data are the average of two individual assays for each receptor and are expressed as % inhibition of the control specific binding of the reference compound. Results showing an inhibition higher than 50% are considered to represent significant effects of the test compound.

A further assay has as its target Serotoninergic 5-HT2C (Homo sapiens, UniProt P28335). As to the kind of experiment: CNS receptor binding assay, 5-HT2C. Conditions: MAP4343 10 µM; [^3H] mesulergine; Human recombinant (CHO cells); read-out: % Inhibition of control specific binding. The protocol:
as §1, §2

Another assay deals with Wistar Kyoto (WKY) rats. In words: Forced swimming test (FST), WKY rats. Type of assay: in vivo, rat. The note with it: dose-ranging, MAP4343 15 mg/kg, Fig. 6B. The protocol: 3B-methoxy-PREG (also referred to as "MAP4343" in Example 4) was dissolved in sesame oil by sonication using a Sonifer-450 (Branson Ultrasonics Corporation, Danbury, USA) during 1 cycle of 5 pulses in sesame oil. Fluoxetine (Biotrend, Köln, Germany) and Ketamine (Sigma-Aldrich, St-Quentin Fallvier, France) were dissolved in sterile saline solution (NaCl 0.9%). The drug formulations were prepared freshly each day of treatment. MAP4343 was administered subcutaneously (ranging of 1-15 mg/Kg/day) while fluoxetine and ketamine were injected intraperitonealy (10 mg/Kg/day and 30 mg/Kg/day, respectively).
After a 6-day period of acclimatization, all experimental groups received daily successive subcutaneous (250 µl per rat) and intraperitoneal (1 ml/kg) injections. […]
Rats were submitted to the forced swimming test (FST), according the procedure initially described by (Detke et al., 1995) and slightly modified by (Bianchi et al., 2002). […] The pre-test and test sessions were recorded using a video camera placed above the cylinder for subsequent behavioral analysis. The immobility time (in sec) was blindly measured by two independent experimenters from recorded videos. […]
The effects of a dose-ranging administration of MAP4343 were tested in WI and WKY rats on their immobility time measured in FST.

The target in another assay is Dopaminergic D2S (Homo sapiens, UniProt P14416). In words: CNS receptor binding assay, D2S. Conditions: MAP4343 10 µM; [^3H] spiperone; Human recombinant (HEK-293 cells); read-out: % Inhibition of control specific binding. The procedure: as §1, §2
Chain of Dopaminergic D2S (P14416 1-414 isoform P14416-2): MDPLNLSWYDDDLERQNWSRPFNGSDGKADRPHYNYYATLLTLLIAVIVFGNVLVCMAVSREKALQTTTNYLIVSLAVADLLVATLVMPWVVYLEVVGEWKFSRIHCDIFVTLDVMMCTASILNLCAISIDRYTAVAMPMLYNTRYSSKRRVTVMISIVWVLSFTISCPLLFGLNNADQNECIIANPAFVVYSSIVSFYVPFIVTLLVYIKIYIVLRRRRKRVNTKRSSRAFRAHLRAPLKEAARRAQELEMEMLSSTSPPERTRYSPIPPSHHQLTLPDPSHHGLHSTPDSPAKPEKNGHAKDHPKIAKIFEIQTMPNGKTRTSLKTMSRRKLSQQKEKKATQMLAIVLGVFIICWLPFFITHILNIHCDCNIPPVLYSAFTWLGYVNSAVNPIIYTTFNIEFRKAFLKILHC
For assay [2], the target named is T2, Muscarinic (Cholinergic) M5 (Homo sapiens, UniProt P08912).
T2 construct: expressed in transfected cells; host or cells: CHO cells
T2 sequence (P08912 whole entry): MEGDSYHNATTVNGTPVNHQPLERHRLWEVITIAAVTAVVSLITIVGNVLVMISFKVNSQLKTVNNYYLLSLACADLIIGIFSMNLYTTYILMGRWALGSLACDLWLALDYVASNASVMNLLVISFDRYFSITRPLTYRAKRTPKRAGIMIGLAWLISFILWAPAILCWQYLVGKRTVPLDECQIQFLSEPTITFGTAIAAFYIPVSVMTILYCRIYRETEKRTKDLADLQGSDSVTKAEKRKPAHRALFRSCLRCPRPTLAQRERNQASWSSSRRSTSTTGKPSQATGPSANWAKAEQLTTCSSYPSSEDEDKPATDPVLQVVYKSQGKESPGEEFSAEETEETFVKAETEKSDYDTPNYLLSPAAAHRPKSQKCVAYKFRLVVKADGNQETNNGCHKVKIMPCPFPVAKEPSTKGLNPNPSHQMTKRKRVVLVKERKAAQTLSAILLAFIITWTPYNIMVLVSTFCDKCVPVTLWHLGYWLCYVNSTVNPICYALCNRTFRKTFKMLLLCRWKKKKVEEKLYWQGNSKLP
As to the kind of experiment: CNS receptor binding assay, M5. Conditions: MAP4343 10 µM; [^3H] 4-DAMP; Human recombinant (CHO cells); read-out: % Inhibition of control specific binding. The procedure: as §1, §2

A further assay deals with Serotoninergic 5-HT7 (Homo sapiens, UniProt P34969). As to the kind of experiment: CNS receptor binding assay, 5-HT7. Conditions: MAP4343 10 µM; [^3H] LSD; Human recombinant (CHO cells); read-out: % Inhibition of control specific binding. The protocol: as §1, §2
Chain of Serotoninergic 5-HT7 (P34969 whole entry): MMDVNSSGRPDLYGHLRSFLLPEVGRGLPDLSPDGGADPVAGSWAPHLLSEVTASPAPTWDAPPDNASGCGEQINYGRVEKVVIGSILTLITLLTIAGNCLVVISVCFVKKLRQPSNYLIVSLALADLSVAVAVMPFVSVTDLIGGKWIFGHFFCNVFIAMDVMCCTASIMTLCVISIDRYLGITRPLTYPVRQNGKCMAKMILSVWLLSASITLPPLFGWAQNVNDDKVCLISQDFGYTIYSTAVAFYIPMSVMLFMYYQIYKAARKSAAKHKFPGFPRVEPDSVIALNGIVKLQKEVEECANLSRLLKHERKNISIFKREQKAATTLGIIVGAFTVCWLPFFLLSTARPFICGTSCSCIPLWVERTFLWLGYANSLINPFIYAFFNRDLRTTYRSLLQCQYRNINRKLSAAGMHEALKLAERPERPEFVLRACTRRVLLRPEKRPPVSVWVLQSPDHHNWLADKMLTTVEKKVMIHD
The subject of another assay is Noradrenergic α1. In words: CNS receptor binding assay, α1. The note with it: MAP4343 10 µM; [^3H] prazosin; rat cerebral cortex. The protocol:
as §1, §2

Assay [3] addresses T3, Glucorticoid Receptor (GR) (Homo sapiens, UniProt P04150).
T3 construct: Human HeLa S3 cells; endogenous in cells; host or cells: HeLa S3
As to the kind of experiment: Radioligand binding assay, steroid hormone receptor GR. Conditions: MAP4343 10 µM; 3 nM [^3H] Dexamethasone; Human HeLa S3 cells. The protocol:
Binding affinity of 3β-methoxy-PREG (MAP4343) for receptors of steroid hormones was evaluated using radioligand binding assays.
Table 3. Affinity of MAP4343 (10 µM) for steroid hormones receptors measured by radioligand binding assays. […] None of the results met significance criteria at concentrations used.

Assay [4] addresses purified tubulin and MAP2 (Homo sapiens, UniProt P11137). As to the kind of experiment: Microtubule polymerization activity (optical density at 345 nm). Type of assay: biochemical. The note with it: increase in optical density at 345 nm, 37 °C, in the presence of GTP. The protocol:
Activity is measured by the increase in optical density at 345 nm of a mixture of purified tubulin and MAP2, incubated at 37 °C in the presence of GTP.

Another assay has as its system PC12 cells. As to the kind of experiment: Stimulation of neuritic sprouting. Type of assay: cell-based. Conditions: PC12 cells differentiated with NGF (10 ng/ml), steroid 30 µM, 3 days; relative to PREG. The protocol: Stimulation of neuritic sprouting is conducted on PC12 cells differentiated in the presence of NGF (10 ng/ml) and the steroid being tested (30 µM) for 3 days. For each condition, the average length of the longest 200 neurites […] is measured simultaneously for 3 cultures.

Assay [5] concerns microtubule-associated protein2 (MAP2). In words: Binding (affinity) by displacement of PREG-3H. Conditions: index of binding.
In a further assay the target is Oppioid µ (Homo sapiens, UniProt P35372). As to the kind of experiment: CNS receptor binding assay, opioid µ. Conditions: MAP4343 10 µM; [^3H] DAMGO; Human recombinant (HEK-293 cells); read-out: % Inhibition of control specific binding. The procedure:
as §1, §2

T3 sequence (P04150 whole entry): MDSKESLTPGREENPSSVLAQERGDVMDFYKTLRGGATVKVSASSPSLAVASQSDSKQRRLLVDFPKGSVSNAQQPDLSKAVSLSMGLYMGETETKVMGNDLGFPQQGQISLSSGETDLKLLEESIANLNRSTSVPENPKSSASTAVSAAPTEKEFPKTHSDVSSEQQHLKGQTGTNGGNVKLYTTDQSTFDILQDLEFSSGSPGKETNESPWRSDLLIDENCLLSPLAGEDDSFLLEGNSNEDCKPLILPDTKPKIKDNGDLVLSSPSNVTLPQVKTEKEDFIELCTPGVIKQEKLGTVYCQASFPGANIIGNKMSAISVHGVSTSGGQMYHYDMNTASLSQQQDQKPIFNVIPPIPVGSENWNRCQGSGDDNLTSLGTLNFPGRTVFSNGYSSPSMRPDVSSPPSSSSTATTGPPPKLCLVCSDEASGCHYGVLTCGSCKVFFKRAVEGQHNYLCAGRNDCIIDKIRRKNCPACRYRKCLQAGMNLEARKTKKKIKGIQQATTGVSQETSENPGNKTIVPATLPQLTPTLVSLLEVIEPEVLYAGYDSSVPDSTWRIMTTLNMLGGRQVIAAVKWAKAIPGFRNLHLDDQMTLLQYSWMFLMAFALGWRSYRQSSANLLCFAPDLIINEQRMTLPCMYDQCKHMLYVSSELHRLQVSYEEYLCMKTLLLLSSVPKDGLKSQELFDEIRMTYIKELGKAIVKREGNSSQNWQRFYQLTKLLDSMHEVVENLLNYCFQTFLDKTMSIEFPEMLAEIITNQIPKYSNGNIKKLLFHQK
Chain of Oppioid µ (P35372 whole entry): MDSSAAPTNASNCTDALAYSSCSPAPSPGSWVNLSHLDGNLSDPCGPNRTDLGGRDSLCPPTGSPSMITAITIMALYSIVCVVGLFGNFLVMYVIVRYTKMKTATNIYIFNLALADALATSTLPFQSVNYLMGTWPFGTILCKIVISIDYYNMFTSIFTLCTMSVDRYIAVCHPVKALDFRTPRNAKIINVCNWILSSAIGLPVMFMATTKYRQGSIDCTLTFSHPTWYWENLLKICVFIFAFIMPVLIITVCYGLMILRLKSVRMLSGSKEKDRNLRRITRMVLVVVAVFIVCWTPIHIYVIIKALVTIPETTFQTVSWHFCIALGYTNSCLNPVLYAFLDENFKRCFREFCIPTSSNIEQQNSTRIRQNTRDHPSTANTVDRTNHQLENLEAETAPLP
Chain of purified tubulin and MAP2 (P11137 whole entry): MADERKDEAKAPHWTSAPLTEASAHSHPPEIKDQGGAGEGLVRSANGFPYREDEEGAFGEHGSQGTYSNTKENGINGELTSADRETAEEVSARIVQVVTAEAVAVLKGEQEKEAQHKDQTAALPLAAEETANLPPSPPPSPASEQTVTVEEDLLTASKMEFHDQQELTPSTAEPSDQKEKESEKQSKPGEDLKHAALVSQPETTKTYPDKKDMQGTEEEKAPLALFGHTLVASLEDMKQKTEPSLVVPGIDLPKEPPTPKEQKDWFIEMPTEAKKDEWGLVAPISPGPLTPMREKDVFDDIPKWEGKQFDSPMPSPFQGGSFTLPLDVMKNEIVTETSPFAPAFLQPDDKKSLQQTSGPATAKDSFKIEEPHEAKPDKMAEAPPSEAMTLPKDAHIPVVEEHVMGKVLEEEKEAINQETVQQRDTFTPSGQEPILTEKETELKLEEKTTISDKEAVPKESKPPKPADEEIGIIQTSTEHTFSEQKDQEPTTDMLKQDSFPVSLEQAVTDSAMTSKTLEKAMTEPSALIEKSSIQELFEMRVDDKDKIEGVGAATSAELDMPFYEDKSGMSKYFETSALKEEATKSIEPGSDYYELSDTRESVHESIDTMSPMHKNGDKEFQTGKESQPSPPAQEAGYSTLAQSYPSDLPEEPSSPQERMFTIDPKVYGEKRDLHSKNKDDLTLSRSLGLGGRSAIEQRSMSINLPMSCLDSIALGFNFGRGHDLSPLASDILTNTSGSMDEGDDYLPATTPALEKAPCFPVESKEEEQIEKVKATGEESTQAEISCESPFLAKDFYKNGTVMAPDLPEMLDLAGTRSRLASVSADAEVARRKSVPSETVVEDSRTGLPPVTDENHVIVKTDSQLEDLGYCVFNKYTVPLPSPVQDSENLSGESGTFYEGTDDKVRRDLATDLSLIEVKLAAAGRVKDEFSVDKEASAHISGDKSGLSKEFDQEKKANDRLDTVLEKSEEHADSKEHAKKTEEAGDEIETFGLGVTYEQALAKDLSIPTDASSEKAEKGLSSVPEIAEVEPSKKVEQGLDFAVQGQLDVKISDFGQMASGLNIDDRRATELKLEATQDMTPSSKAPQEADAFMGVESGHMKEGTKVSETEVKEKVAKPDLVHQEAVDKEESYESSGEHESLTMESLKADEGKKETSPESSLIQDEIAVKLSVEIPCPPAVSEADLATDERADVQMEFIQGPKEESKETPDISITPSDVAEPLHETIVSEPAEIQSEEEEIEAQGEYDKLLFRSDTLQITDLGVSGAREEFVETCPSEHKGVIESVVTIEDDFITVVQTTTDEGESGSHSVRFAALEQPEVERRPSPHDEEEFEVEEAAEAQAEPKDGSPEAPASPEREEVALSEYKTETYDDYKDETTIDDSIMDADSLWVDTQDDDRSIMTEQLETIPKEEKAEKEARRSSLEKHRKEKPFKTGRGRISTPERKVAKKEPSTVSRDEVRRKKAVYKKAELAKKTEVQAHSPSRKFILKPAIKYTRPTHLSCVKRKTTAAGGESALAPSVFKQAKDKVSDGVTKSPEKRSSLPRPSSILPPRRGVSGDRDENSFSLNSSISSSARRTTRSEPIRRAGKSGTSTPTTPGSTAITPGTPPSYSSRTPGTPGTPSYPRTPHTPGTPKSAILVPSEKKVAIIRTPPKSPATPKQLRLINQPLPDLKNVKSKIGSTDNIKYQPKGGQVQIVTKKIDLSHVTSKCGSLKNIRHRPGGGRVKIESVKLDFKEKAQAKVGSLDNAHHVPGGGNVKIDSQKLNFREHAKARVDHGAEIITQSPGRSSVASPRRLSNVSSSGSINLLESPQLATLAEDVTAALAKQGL
T1 sequence (P08173 whole entry): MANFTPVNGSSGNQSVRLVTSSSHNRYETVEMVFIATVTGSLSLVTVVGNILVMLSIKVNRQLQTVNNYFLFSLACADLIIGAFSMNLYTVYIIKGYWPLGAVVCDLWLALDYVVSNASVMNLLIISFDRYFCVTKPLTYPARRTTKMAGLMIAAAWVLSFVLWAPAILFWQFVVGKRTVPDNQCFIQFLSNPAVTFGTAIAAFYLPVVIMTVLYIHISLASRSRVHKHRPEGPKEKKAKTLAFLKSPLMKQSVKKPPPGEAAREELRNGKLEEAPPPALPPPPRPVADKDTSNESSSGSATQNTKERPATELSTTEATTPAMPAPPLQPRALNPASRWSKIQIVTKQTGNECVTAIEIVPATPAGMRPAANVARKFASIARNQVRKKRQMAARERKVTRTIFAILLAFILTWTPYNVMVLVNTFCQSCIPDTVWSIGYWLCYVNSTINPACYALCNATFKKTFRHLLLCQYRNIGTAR

Turning to `CO[C@H]1CC[C@@]2(C)C(=CC[C@H]3[C@@H]4CC[C@H](C(C)=O)[C@@]4(C)CC[C@@H]32)C1` (stereo in doubt) [MAP4343, 3β-methoxy-pregna-5-ene-20-one], the inhibition (in general, the relative decrease from the control value, in per cent) at 10 µM was 20% in [1]; 7% on Serotoninergic 5-HT2C; 6% on Dopaminergic D2S; 12% in assay [2]; -11% at Serotoninergic 5-HT7; less than 25% in assay [3]. The inhibition at 10 µM at Oppioid µ stood at 0%. In addition, the “immobility time measured in FST, change as compared to WKY receiving vehicle alone” value in the assay on Wistar Kyoto (WKY) rats is on record as -25%. In addition, the “% Inhibition of control specific binding” value in the assay with Noradrenergic α1 was found to be 4%. Further, the % inhibition (commonly the drop in the measured response relative to a control, in per cent) in assay [3] turned out to be 21%. The Activity in [4] is given as 100% of PREG. For the same compound, the Neuritic sprouting result in the assay with PC12 cells is reported as “+++”. Besides, the Affinity in assay [5] is 100% of PREG.

The values are drawn from EP3436024B1, “3-BETA-METHOXY-PREG FOR USE IN THE TREATMENT OF TREATMENT RESISTANT DEPRESSION” (Mapreg, priority 2016, dated 2017).
